Assays:
Format in all cases: cell-based, Human
NRF2 gene [1] = test: NRF2 gene editing (indel/frameshift) analysis by NGS and CRISPResso2 in FaDu cells; settings: for knocking out NRF2 (DNA sequence data): exon 4
Protocol: (§1) The NRF2 gene-coding sequence was entered into SnapGene and the following gRNAs were selected for targeting exon 2: (sg3) 5′-[…]-3′ (SEQ ID NO:75); as well as two gRNAs targeting Exon 4: (sg76) 5′-[…]-3′ (SEQ ID NO:16), (sg83) 5′-[…]-3′ (SEQ ID NO:24). Based on the gRNA design, synthetic single gRNAs were ordered from Synthego (Menlo Park, California, USA). CleanCap® Cas9 mRNA (5moU) was ordered from TriLink Biotechnologies (San Diego, CA, USA).
Either one million cells were seeded to a 75 cm^2 tissue culture flask or 2.5 million cells were seeded to a 175 cm^2 tissue culture flask 24 hours prior to transfection and allowed to reach 60-80% confluency. On the day of the transfection, cells were treated with Lipofectamine MessengerMAX reagent (Thermo Fisher Scientific, Waltham, MA) bearing 10 μg or 25 μg of Cas9mRNA and 10 μg or 25 μg of sgRNA, suspended in Opti-MEM, per the manufacturer's instructions. 39 μL or 97.5 μL of MessengerMax lipofectamine reagent was diluted in 1.5 mL or 3.75 mL OPTI-MEM medium and vortexed twice was incubated for ten minutes at room temperature, during which time the culture media was replaced with 15 mL or 25 mL of fresh media, as appropriate to the cell line. A total of 20 μg or 50 μg of RNA was then added to the diluted lipofectamine, consisting of 10 μg or 25 μg Cas9 mRNA and 10 μg or 25 μg sgRNA. The suspension was incubated at room temperature for an additional five minutes before being added, in full, to the tissue culture flask, which was then swirled gently to disperse the reagent. […]
(§2) Targeted amplicon libraries were prepared using Illumina's 16S metagenomic sequencing library preparation protocol for MiSeq. Genomic DNA was extracted from cells using the Qiagen's DNeasy Blood & Tissue kit (Quiagen, Hilden, Germany) or QuickExtract reagent (Biosearch Technologies). The region surrounding the CRISPR target site for Exon 2 (398 bp) and Exon 4 (402 bp) of the NRF2 gene were amplified using the 2× Phusion Flash PCR master mix (Thermo Fisher Scientific, Waltham, MA). Post amplification, samples were cleaned using AMPure beads and DNA concentration was measured using the Qubit assay (Thermo Fisher Scientific, Waltham, MA). Samples are also run on TapeStation (Agilent Technologies Santa Clara, CA) to verify the presence of the desired amplicon. The samples were indexed using either the IDT for Illumina DNA/RNA UD indexes set A (Illumina San Diego, CA). Samples were again quantified using Qubit and average library size was calculated using the Tapestation amplicon size. Once pooled to the loading concentration, the libraries were sequenced using the MiSeq Reagent kit v2 (Illumina, San Diego, CA). Only the data that passed data QC in Sequencing Analysis Viewer, was analyzed using CRISPResso2 (CRISPResso2 website) to understand gene editing efficiency and frameshift analysis.

NRF2 gene [2] = test: NRF2 gene editing (indel/frameshift) analysis by NGS and CRISPResso2 in KYSE-410 cells; settings: for gene editing activity (indel profiles): seventy-two hours post-transfection; for knocking out NRF2 (DNA sequence data): exon 4
Protocol: as §1
Either one million cells were seeded to a 75 cm^2 tissue culture flask or 2.5 million cells were seeded to a 175 cm^2 tissue culture flask 24 hours prior to transfection and allowed to reach 60-80% confluency. On the day of the transfection, cells were treated with Lipofectamine MessengerMAX reagent (Thermo Fisher Scientific, Waltham, MA) bearing 10 μg or 25 μg of Cas9mRNA and 10 μg or 25 μg of sgRNA, suspended in Opti-MEM, per the manufacturer's instructions. 39 μL or 97.5 μL of MessengerMax lipofectamine reagent was diluted in 1.5 mL or 3.75 mL OPTI-MEM medium and vortexed twice was incubated for ten minutes at room temperature, during which time the culture media was replaced with 15 mL or 25 mL of fresh media, as appropriate to the cell line. A total of 20 μg or 50 μg of RNA was then added to the diluted lipofectamine, consisting of 10 μg or 25 μg Cas9 mRNA and 10 μg or 25 μg sgRNA. The suspension was incubated at room temperature for an additional five minutes before being added, in full, to the tissue culture flask, which was then swirled gently to disperse the reagent. Treated cells were incubated for 72 hours at 37° C. prior to being assayed.
as §2

[3] = system: NRF2 downstream target genes (NQO1, HMOX1, GCLC); test: qPCR gene expression analysis of NRF2 and downstream targets in FaDu cells; settings: for NQO1 expression (qPCR): vs wildtype unedited cells, without cisplatin exposure
Protocol: Total RNA was isolated from edited cells using TRIzol reagent and PureLink RNA Mini Kit (Thermo Fisher Scientific, Waltham, MA). Reverse transcription was conducted using the Applied Biosystems High-Capacity RNA-to-cDNA kit (Thermo Fisher Scientific, Waltham, MA). The cDNA was used as the template in the qPCR amplification of GAPDH (Fwd 5′ […]3′ (SEQ ID NO:76), Rev 5′[…]3′ (SEQ ID NO:77)), NRF2 (Fwd 5′[…]3′ (SEQ ID NO:78), Rev 5′[…]3′ (SEQ ID NO:79)), NQO1 (Fwd 5′[…]3′ (SEQ ID NO:80), Rev 5′[…]3′ (SEQ ID NO:81)), HMOX1 (Fwd 5′ […]3′ (SEQ ID NO:82), Rev 5′[…]3′ (SEQ ID NO:83)) and GCLC (Fwd 5′[…]3′ (SEQ ID NO:84), Rev 5′ […]3′ (SEQ ID NO:85)) transcripts using the SsoAdvanced universal SYBR Green Supermix (BioRad, Hercules, CA). The experiment was conducted at least twice with all samples run in duplicate at minimum. Relative expression levels of mRNA were calculated using the Livak method and normalized to the control. The data was plotted with the coefficient of variance.
For all gene editing studies from bench to bedside, it is important to employ a functional assay, accompanied by an internal functional control, to assess the efficiency of CRISPR/Cas activity. In this case, NRF2 is a transcription factor that controls the expression of over 200 genes. Thus, NRF2 disruption can be measured functionally through qPCR analysis of NQO1 expression, a keystone gene controlled by NRF2. NQO1 has been used as a standard measure of NRF2 activity in cancer cells^40. We also use downstream targets HMOX1 and GCLC, two major antioxidant enzymes, to assess NRF2 function.

[4] = 13 days (two weeks) after transfection

Substance | editing (NRF2 gene [1]; 72 hr) | editing (NRF2 gene [1]; [4]) | frameshift mutations (of the total indels) (NRF2 gene [1]; exon 2, 72 hours) | total indel population (NRF2 gene [1]; exon 2, 72 hours) | gene editing activity (indel profiles) (NRF2 gene [2]) | expression of NQO1, HMOX1, and GCLC ([3]; 2 week timepoint) | expression of downstream target genes relative to NRF2 levels (ratio) ([3]; 72 hr) | knocking out NRF2 (DNA sequence data) (NRF2 gene [1]) | knocking out NRF2 (DNA sequence data) (NRF2 gene [2]) | NQO1 expression (qPCR) [3] | expression of NQO1 and GCLC ([3]; 2 week timepoint, compared to sg3 and sg76) | NQO1 and GCLC expression levels ([3]; 72 hr)
sg3: gRNA targeting the DLG motif in exon 2 of NRF2; 5′-TATTTGACTTCAGTCAGCGA-3′ or TGGAGGCAAGATATAGATCT (further chemistry not given here) [reference compound] | 85.5% | 73.45% | exceeded 76% | exceeded 76% | 97% | increase in expression | do not show a reduction in expression of downstream target genes relative to NRF2 levels | – | – | – | – | –
sg76: gRNA targeting exon 4 of NRF2; TCACTTGTTCCTGATATTCC CGG (guide TCACTTGTTCCTGATATTCCCGG; listed as DNA, chemistry not given here) | 87% | 49.30% | – | – | 97% | – | do not show a reduction in expression of downstream target genes relative to NRF2 levels | efficient in knocking out NRF2 at exon 4 | efficient in knocking out NRF2 at exon 4 | significantly decreased | – | –
sg83: gRNA targeting exon 4 of NRF2; GTAGCCCCTGTTGATTTAGA CGG (guide GTAGCCCCTGTTGATTTAGACGG; listed as DNA, chemistry not given here) | 86% | 40.95% | – | – | 97% | – | – | efficient in knocking out NRF2 at exon 4 | efficient in knocking out NRF2 at exon 4 | significantly decreased | lower expression of NQO1 and GCLC | diminished
